{
  "source": "ChEMBL document CHEMBL3808348",
  "about": "“Rational Design, Synthesis, and Biological Evaluation of 7-Azaindole Derivatives as Potent Focused Multi-Targeted Kinase Inhibitors” (J Med Chem, 2016)",
  "key": {"[1]": {"molecular_target": "Dual specificity mitogen-activated protein kinase kinase 1 (Homo sapiens) (UniProt Q02750)", "sequence (Q02750 whole entry)": "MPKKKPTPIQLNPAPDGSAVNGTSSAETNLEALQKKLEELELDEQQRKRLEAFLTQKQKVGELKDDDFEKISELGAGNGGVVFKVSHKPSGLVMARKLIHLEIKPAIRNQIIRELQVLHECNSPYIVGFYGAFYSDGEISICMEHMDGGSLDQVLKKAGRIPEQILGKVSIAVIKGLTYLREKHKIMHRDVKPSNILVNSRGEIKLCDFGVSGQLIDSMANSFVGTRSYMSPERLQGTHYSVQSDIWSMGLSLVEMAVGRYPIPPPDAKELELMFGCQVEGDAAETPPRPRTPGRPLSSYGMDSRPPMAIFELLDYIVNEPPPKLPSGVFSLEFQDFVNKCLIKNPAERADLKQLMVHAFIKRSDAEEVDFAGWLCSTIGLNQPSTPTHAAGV", "conditions": "100 nM", "description": "Inhibition of full length His-tagged human recombinant MEK1 expressed in baculovirus expression system at 100 nM"}, "[2]": {"molecular_target": "RAC-beta serine/threonine-protein kinase (Homo sapiens) (UniProt P31751)", "conditions": "100 nM", "description": "Inhibition of full length His-tagged human recombinant AKT2 expressed in baculovirus using Fluorescein-Crosstide as substrate at 100 nM"}, "[3]": {"molecular_target": "Proto-oncogene tyrosine-protein kinase Src (Homo sapiens, UniProt P12931)", "test": "Inhibition of full length His-tagged human recombinant cSRC expressed in baculovirus using Fluorescein-Poly GT as substrate"}, "[4]": {"system": "Epidermal growth factor receptor (Homo sapiens), P00533 [T790M]", "sequence (P00533 whole entry T790M)": "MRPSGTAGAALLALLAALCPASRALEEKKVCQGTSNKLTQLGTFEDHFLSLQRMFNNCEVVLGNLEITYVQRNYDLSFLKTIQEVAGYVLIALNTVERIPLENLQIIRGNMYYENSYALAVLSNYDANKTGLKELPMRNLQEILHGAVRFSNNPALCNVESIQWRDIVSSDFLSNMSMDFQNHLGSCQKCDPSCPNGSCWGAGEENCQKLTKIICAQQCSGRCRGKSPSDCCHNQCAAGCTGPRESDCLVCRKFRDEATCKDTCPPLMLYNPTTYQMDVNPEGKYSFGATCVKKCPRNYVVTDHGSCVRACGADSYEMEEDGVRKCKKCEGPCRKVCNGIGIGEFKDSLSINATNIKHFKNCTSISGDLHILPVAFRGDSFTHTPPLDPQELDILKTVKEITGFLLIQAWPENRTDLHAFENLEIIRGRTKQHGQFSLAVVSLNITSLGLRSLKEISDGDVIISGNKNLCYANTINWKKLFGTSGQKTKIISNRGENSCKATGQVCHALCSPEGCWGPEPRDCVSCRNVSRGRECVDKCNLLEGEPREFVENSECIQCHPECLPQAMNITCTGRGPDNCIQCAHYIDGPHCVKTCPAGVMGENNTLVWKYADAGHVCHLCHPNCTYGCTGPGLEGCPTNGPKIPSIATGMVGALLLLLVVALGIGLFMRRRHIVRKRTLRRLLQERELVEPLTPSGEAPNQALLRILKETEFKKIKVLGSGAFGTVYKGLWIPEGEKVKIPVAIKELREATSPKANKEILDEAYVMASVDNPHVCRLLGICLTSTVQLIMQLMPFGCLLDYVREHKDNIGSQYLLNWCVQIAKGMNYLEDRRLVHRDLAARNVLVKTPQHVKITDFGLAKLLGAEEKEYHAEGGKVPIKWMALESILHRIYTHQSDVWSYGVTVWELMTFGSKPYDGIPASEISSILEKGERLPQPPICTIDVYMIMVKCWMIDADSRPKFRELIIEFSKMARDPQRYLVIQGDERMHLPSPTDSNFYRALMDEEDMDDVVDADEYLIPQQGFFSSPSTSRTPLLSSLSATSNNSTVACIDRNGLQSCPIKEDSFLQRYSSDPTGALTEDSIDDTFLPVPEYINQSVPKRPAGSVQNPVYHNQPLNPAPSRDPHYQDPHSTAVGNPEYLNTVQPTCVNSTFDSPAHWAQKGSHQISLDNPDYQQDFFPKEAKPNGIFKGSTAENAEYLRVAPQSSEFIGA", "conditions": "100 nM"}, "NCI-H1975": {"system": "NCI-H1975", "test": "Antiproliferative activity against human NCI-H1975 cells harboring EGFR L858R/T790M double mutant after 72 hrs by MTT assay", "assay_type": "functional, cell-based", "conditions": "NCI-H1975, 72 h"}, "[5]": {"molecular_target": "Serine/threonine-protein kinase D2 (Homo sapiens) (UniProt Q9BZL6)", "conditions": "100 nM", "description": "Inhibition of GST-tagged full length human recombinant PKD2 expressed in baculovirus using Fluorescein-CREBtide as substrate at 100 nM"}, "[6]": {"molecular_target": "Tyrosine-protein kinase ABL2 (Homo sapiens) (UniProt P42684)", "conditions": "100 nM", "description": "Inhibition of His-tagged full length human recombinant ARG expressed in baculovirus using Fluorescein-Poly GT as substrate at 100 nM"}, "[7]": {"molecular_target": "Serine/threonine-protein kinase PLK1 (Homo sapiens) (UniProt P53350)", "conditions": "100 nM", "description": "Inhibition of His-tagged full length human recombinant PLK1 expressed in baculovirus using at 100 nM"}, "[8]": {"molecular_target": "Tyrosine-protein kinase Fes/Fps (Homo sapiens) (UniProt P07332)", "conditions": "100 nM", "description": "Inhibition of His-tagged full length human recombinant FES expressed in baculovirus using Fluorescein-Poly GT as substrate at 100 nM"}, "[9]": {"molecular_target": "Mitogen-activated protein kinase 1 (Homo sapiens) (UniProt P28482)", "sequence (P28482 whole entry)": "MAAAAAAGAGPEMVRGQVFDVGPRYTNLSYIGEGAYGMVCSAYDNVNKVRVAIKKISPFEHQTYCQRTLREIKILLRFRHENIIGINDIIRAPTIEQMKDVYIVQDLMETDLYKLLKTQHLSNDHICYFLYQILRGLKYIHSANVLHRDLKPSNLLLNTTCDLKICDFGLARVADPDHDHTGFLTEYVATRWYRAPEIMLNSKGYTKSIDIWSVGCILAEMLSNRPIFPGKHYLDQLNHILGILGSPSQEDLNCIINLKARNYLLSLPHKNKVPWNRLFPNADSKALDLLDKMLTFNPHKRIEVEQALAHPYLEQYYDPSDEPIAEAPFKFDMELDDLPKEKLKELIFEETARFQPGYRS", "conditions": "100 nM", "description": "Inhibition of GST-tagged full length human recombinant ERK2 expressed in Escherichia coli using GFP-AT F2 as substrate at 100 nM"}, "[10]": {"molecular_target": "Rho-associated protein kinase 2 (Homo sapiens) (UniProt O75116)", "conditions": "100 nM", "description": "Inhibition of GST-tagged human recombinant ROCK2 ( 1 to 552 residues) expressed in baculovirus using Fluorescein-PKC as substrate at 100 nM"}, "[11]": {"molecular_target": "Tyrosine-protein kinase FRK (Homo sapiens, UniProt P42685)", "test": "Inhibition of GST-tagged full length human recombinant FRK expressed in baculovirus using Fluorescein-Poly GT as substrate"}, "[12]": {"molecular_target": "Receptor tyrosine-protein kinase erbB-2 (Homo sapiens) (UniProt P04626)", "conditions": "100 nM", "description": "Inhibition of His-tagged human recombinant ERBB2 (676 to 1225 residues) expressed in baculovirus using Fluorescein-Poly GT as substrate at 100 nM"}, "[13]": {"molecular_target": "Tyrosine-protein kinase BTK (Homo sapiens) (UniProt Q06187)", "sequence (Q06187 whole entry)": "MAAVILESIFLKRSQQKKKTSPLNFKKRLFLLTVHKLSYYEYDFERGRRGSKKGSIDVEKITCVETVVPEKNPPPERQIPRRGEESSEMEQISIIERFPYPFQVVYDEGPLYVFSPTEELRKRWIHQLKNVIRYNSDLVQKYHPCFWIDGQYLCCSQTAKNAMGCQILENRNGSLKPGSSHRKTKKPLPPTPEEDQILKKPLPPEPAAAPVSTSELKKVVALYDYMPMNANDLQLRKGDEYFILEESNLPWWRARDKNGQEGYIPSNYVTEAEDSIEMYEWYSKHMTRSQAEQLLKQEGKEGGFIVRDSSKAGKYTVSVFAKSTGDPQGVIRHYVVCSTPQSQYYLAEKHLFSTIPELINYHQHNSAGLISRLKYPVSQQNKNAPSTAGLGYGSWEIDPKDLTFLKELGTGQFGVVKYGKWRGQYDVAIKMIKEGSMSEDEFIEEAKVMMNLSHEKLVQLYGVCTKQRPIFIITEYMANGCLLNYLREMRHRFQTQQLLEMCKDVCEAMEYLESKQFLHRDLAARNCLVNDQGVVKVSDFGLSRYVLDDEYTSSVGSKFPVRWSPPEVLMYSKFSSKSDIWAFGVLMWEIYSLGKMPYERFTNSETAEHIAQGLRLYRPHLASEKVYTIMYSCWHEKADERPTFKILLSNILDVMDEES", "conditions": "100 nM", "description": "Inhibition of His-tagged full length human recombinant BTK expressed in baculovirus using Fluorescein-Poly GT as substrate at 100 nM"}, "[14]": {"molecular_target": "Receptor-type tyrosine-protein kinase FLT3 (Homo sapiens) (UniProt P36888)", "conditions": "100 nM", "description": "Inhibition of His-tagged human recombinant FLT3 (564 to 958 residues) expressed in baculovirus using Fluorescein-Poly GT as substrate at 100 nM"}, "[15]": {"molecular_target": "CDK2/Cyclin A2 (Homo sapiens) (UniProt P24941+P20248)", "conditions": "100 nM", "description": "Inhibition of CDK2/cyclinA (unknown origin) at 100 nM"}, "[16]": {"molecular_target": "Tyrosine-protein kinase Fer (Homo sapiens) (UniProt P16591)", "conditions": "100 nM", "description": "Inhibition of His-tagged human recombinant FER (541 to 822 residues) expressed in baculovirus using Fluorescein-Poly GT as substrate at 100 nM"}, "[17]": {"molecular_target": "Tyrosine-protein kinase ABL1 (Homo sapiens, UniProt P00519)", "test": "Inhibition of His-tagged full length human recombinant wild type ABL expressed in baculovirus using Fluorescein-Poly GT as substrate at 100 nM"}, "[18]": {"molecular_target": "Tyrosine-protein kinase JAK3 (Homo sapiens) (UniProt P52333)", "conditions": "100 nM", "description": "Inhibition of GST-tagged human recombinant JAK3 (781 to 1124 residues) expressed in baculovirus using GFP-ST AT1 as substrate at 100 nM"}, "[19]": {"test": "Cmax in Swiss mouse plasma at 20 mg/kg, po by LC/MS/MS analysis", "assay_type": "ADME, organism-based", "parameters": "dose 20 mg/kg, route oral"}, "[20]": {"molecular_target": "cAMP-dependent protein kinase catalytic subunit alpha (Homo sapiens) (UniProt P17612)", "conditions": "100 nM", "description": "Inhibition of His-tagged human recombinant PKA C-alpha (1 to 351 residues) expressed in Escherichia coli using Fluorescein-Crosstide as substrate at 100 nM"}, "[21]": {"system": "Tyrosine-protein kinase ABL1 (Homo sapiens), P00519 [G250E]", "test": "Inhibition of His-tagged full length human recombinant ABL G250E mutant expressed in baculovirus using Fluorescein-Poly GT as substrate at 100 nM"}, "MDA-MB-231": {"system": "MDA-MB-231", "test": "Antiproliferative activity against human MDA-MB-231 cells after 72 hrs by MTT assay", "assay_type": "functional, cell-based", "conditions": "MDA-MB-231, 72 h"}, "[22]": {"molecular_target": "Cyclin-dependent kinase 5/CDK5 activator 1 (Homo sapiens) (UniProt Q00535+Q15078)", "conditions": "100 nM", "description": "Inhibition of CDK5/p25 (unknown origin) at 100 nM"}, "[23]": {"molecular_target": "Vascular endothelial growth factor receptor 1 (Homo sapiens) (UniProt P17948)", "sequence (P17948 whole entry)": "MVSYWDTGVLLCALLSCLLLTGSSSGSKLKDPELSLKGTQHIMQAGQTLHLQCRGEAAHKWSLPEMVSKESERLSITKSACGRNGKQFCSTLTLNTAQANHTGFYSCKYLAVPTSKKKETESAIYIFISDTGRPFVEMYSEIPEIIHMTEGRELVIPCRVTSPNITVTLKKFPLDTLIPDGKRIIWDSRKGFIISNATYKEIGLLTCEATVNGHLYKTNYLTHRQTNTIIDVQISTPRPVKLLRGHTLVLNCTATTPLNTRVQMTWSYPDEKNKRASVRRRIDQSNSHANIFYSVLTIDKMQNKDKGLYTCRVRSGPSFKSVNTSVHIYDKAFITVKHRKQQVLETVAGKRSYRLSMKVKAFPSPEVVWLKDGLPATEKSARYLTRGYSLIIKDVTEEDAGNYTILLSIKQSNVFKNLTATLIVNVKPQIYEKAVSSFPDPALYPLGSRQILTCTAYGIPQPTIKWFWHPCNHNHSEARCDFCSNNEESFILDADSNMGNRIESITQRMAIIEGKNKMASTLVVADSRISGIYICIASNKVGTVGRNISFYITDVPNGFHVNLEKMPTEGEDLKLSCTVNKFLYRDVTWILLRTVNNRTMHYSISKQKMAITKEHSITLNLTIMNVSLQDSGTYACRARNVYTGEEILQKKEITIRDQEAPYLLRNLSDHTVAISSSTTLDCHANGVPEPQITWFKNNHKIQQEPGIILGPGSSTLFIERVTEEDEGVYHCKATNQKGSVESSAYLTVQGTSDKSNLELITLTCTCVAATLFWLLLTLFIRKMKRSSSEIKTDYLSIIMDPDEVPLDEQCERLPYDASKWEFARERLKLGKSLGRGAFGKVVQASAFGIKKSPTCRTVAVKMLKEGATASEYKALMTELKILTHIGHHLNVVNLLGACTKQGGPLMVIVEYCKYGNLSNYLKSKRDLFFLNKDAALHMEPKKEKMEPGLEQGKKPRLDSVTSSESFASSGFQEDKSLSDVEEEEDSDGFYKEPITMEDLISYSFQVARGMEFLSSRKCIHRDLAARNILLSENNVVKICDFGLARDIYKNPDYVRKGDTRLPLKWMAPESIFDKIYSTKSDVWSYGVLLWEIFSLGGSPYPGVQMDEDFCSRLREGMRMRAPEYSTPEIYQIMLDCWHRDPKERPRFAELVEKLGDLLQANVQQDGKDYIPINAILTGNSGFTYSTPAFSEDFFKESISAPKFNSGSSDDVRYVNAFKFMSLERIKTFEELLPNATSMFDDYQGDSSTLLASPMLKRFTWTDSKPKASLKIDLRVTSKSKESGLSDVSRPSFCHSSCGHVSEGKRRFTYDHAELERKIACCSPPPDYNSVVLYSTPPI", "conditions": "100 nM", "description": "Inhibition of GST-tagged human recombinant VEGFR1 (781 to 1338 residues) expressed in baculovirus using Fluorescein-Poly GT as substrate at 100 nM"}, "[24]": {"test": "Antiproliferative activity against human Caki2 cells after 72 hrs by MTT assay", "assay_type": "functional, cell-based", "conditions": "CAKI-2, 72 h"}, "[25]": {"molecular_target": "Leukocyte tyrosine kinase receptor (Homo sapiens) (UniProt P29376)", "conditions": "100 nM", "description": "Inhibition of GST-tagged human recombinant TYK1 (450 to 864 residues) expressed in baculovirus using Fluorescein-Poly GT as substrate at 100 nM"}, "[26]": {"molecular_target": "Angiopoietin-1 receptor (Homo sapiens) (UniProt Q02763)", "sequence (Q02763 whole entry)": "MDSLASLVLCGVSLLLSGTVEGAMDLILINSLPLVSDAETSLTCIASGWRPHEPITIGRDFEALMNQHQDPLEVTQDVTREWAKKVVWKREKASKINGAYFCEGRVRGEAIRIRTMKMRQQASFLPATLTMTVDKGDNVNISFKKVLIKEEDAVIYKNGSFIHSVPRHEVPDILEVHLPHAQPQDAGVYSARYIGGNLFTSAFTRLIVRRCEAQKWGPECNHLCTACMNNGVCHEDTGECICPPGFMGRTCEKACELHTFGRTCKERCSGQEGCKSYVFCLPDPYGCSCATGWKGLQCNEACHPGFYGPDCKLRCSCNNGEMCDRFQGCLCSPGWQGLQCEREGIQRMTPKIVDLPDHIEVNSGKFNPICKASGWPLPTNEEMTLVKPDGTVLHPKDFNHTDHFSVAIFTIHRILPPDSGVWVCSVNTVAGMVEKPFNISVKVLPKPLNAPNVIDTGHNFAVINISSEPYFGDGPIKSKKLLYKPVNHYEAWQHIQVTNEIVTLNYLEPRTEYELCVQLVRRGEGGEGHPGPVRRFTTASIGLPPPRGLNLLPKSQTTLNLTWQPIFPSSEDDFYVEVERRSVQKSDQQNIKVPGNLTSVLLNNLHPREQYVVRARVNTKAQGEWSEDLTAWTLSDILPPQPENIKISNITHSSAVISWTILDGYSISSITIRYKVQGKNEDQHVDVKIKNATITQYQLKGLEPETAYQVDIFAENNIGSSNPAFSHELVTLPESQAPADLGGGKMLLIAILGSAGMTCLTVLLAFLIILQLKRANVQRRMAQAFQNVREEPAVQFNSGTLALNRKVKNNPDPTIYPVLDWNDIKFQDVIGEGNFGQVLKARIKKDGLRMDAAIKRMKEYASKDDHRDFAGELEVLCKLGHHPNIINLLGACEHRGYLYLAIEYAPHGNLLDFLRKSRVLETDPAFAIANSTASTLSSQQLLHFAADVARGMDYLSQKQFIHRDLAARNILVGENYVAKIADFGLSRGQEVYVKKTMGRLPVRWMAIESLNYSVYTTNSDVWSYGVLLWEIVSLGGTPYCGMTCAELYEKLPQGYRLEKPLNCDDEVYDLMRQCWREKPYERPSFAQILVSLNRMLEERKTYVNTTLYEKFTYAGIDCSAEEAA", "conditions": "100 nM", "description": "Inhibition of GST-tagged human recombinant TIE2 (817 to 1101 residues) expressed in baculovirus using Fluorescein-Poly GT as substrate at 100 nM"}, "[27]": {"molecular_target": "Tyrosine-protein kinase Fyn (Homo sapiens, UniProt P06241)", "test": "Inhibition of His-tagged full length human recombinant FYN expressed in baculovirus using Fluorescein-Poly GT as substrate"}, "[28]": {"molecular_target": "Protein kinase C epsilon type (Homo sapiens) (UniProt Q02156)", "conditions": "100 nM", "description": "Inhibition of full length human recombinant PKCepsilon expressed in baculovirus using Fluorescein-PKC as substrate at 100 nM"}, "[29]": {"molecular_target": "Tyrosine-protein kinase ITK/TSK (Homo sapiens) (UniProt Q08881)", "conditions": "100 nM", "description": "Inhibition of GST-tagged full length human recombinant ITK expressed in baculovirus using Fluorescein-Poly GT as substrate at 100 nM"}, "[30]": {"test": "AUC(0 to infinity) in Swiss mouse plasma at 20 mg/kg, po by LC/MS/MS analysis", "assay_type": "ADME, organism-based", "parameters": "dose 20 mg/kg, time infinity, route oral"}, "[31]": {"molecular_target": "Fibroblast growth factor receptor 2 (Homo sapiens) (UniProt P21802)", "test": "Inhibition of His-tagged human recombinant FGFR2 (403 to 822 residues) expressed in baculovirus using Fluorescein-Poly GT as substrate at 100 nM"}, "[32]": {"molecular_target": "Serine/threonine-protein kinase B-raf (Homo sapiens, UniProt P15056, V600E)", "test": "Inhibition of full length GST-tagged human recombinant BRAF V600E mutant expressed in baculovirus using Fluorescein-MAP2K1 as substrate"}, "[33]": {"molecular_target": "MAP kinase-activated protein kinase 5 (Homo sapiens) (UniProt Q8IW41)", "conditions": "100 nM", "description": "Inhibition of His-tagged full length human recombinant MAPKAPK5 expressed in baculovirus at 100 nM"}, "[34]": {"molecular_target": "Serine/threonine-protein kinase Nek2 (Homo sapiens) (UniProt P51955)", "conditions": "100 nM", "description": "Inhibition of HIS-tagged full length human recombinant NEK2 expressed in baculovirus using Fluorescein-PKC as substrate at 100 nM"}, "[35]": {"molecular_target": "Fibroblast growth factor receptor 1 (Homo sapiens) (UniProt P11362)", "conditions": "100 nM", "description": "Inhibition of His-tagged human recombinant FGFR1 (308 to 731 residues) expressed in baculovirus using Fluorescein-Poly GT as substrate at 100 nM"}, "[36]": {"molecular_target": "Ribosomal protein S6 kinase beta-1 (Homo sapiens) (UniProt P23443)", "conditions": "100 nM", "description": "Inhibition of GST-tagged human recombinant p70S6K (1 to 421 residues) expressed in baculovirus using Fluorescein-Crosstide as substrate at 100 nM"}, "[37]": {"molecular_target": "Vascular endothelial growth factor receptor 2 (Homo sapiens) (UniProt P35968)", "test": "Inhibition of full length His-tagged human recombinant VEGFR2 expressed in baculovirus using Fluorescein-Poly GT as substrate at 100 nM"}, "[38]": {"molecular_target": "Focal adhesion kinase 1 (Homo sapiens) (UniProt Q05397)", "conditions": "100 nM", "description": "Inhibition of full length GST-tagged human recombinant FAK expressed in baculovirus using Fluorescein-Poly GT as substrate at 100 nM"}, "[39]": {"molecular_target": "Megakaryocyte-associated tyrosine-protein kinase (Homo sapiens) (UniProt P42679)", "conditions": "100 nM", "description": "Inhibition of His-tagged full length human recombinant MATK expressed in Escherichia coli using Fluorescein-Poly GT as substrate at 100 nM"}},
  "note": "pEC50, pIC50: −log10 of the molar value.",
  "data": [
    {"compound": "COC(=O)c1cc2cc(NCc3cc(NC(=O)c4cc(-n5cnc(C)c5)cc(C(F)(F)F)c4)ccc3C)cnc2[nH]1", "values": [
      {"measurement": "inhibition", "setting": "[1]", "value": "< 40", "unit": "%"},
      {"measurement": "inhibition", "setting": "[2]", "value": "< 40", "unit": "%"},
      {"measurement": "pIC50", "setting": "[3]", "value": 7.40},
      {"measurement": "inhibition", "setting": "[4]", "value": "< 40", "unit": "%"},
      {"measurement": "pEC50", "setting": "NCI-H1975", "value": 6.98},
      {"measurement": "inhibition", "setting": "[5]", "value": "< 40", "unit": "%"},
      {"measurement": "inhibition", "setting": "[6]", "value": "< 40", "unit": "%"},
      {"measurement": "inhibition", "setting": "[7]", "value": "< 40", "unit": "%"},
      {"measurement": "inhibition", "setting": "[8]", "value": "< 40", "unit": "%"},
      {"measurement": "inhibition", "setting": "[9]", "value": "< 40", "unit": "%"},
      {"measurement": "inhibition", "setting": "[10]", "value": "< 40", "unit": "%"},
      {"measurement": "pIC50", "setting": "[11]", "value": 7.21},
      {"measurement": "inhibition", "setting": "[12]", "value": "< 40", "unit": "%"},
      {"measurement": "inhibition", "setting": "[13]", "value": "< 40", "unit": "%"},
      {"measurement": "inhibition", "setting": "[14]", "value": "< 40", "unit": "%"},
      {"measurement": "inhibition", "setting": "[15]", "value": "< 40", "unit": "%"},
      {"measurement": "inhibition", "setting": "[16]", "value": "< 40", "unit": "%"},
      {"measurement": "inhibition", "setting": "[17]", "value": "> 80", "unit": "%"},
      {"measurement": "inhibition", "setting": "[18]", "value": "< 40", "unit": "%"},
      {"measurement": "Cmax", "setting": "[19]", "value": 610, "unit": "ng/mL"},
      {"measurement": "inhibition", "setting": "[20]", "value": "< 40", "unit": "%"},
      {"measurement": "inhibition", "setting": "[21]", "value": "> 80", "unit": "%"},
      {"measurement": "pEC50", "setting": "MDA-MB-231", "value": 6.80},
      {"measurement": "inhibition", "setting": "[22]", "value": "< 40", "unit": "%"},
      {"measurement": "inhibition", "setting": "[23]", "value": "< 40", "unit": "%"},
      {"measurement": "pEC50", "setting": "[24]", "value": 7.66},
      {"measurement": "inhibition", "setting": "[25]", "value": "< 40", "unit": "%"},
      {"measurement": "inhibition", "setting": "[26]", "value": "< 40", "unit": "%"},
      {"measurement": "pIC50", "setting": "[27]", "value": 6.88},
      {"measurement": "inhibition", "setting": "[28]", "value": "< 40", "unit": "%"},
      {"measurement": "inhibition", "setting": "[29]", "value": "< 40", "unit": "%"},
      {"measurement": "AUC(0-inf)", "setting": "[30]", "value": 3030, "unit": "ng·h/mL"},
      {"measurement": "inhibition", "setting": "[31]", "value": 52, "unit": "%"},
      {"measurement": "pIC50", "setting": "[32]", "value": 8.00},
      {"measurement": "inhibition", "setting": "[33]", "value": "< 40", "unit": "%"},
      {"measurement": "inhibition", "setting": "[34]", "value": "< 40", "unit": "%"},
      {"measurement": "inhibition", "setting": "[35]", "value": "< 40", "unit": "%"},
      {"measurement": "inhibition", "setting": "[36]", "value": "< 40", "unit": "%"},
      {"measurement": "inhibition", "setting": "[37]", "value": 46, "unit": "%"},
      {"measurement": "inhibition", "setting": "[38]", "value": "< 40", "unit": "%"},
      {"measurement": "inhibition", "setting": "[39]", "value": "< 40", "unit": "%"}
    ]}
  ]
}
